The text below walks through data of ChEMBL document CHEMBL3046677, “Diastereoselective synthesis of the model insect antifeedants related to azadiradione and epoxyazadiradione based on intramolecular insertion of -aryl--diazoketones” (1998).

For one test, the system named is Spodoptera frugiperda. Nature of the test: Antifeedant activity against Spodoptera frugiperda (fall armyworm) assessed as antifeedant index at 100 ppm. Format: functional.
As for `O=C1[C@H]2O[C@]23CCCC[C@H]3[C@@H]1c1ccccc1` (racemic), the AFI is -12%. For `O=C1C=C2CCCC[C@H]2[C@@H]1c1ccoc1` (racemic), the AFI was 42%.

In the case of `O=C1C=C2CCCC[C@H]2[C@@H]1c1ccccc1` (racemic), the AFI came out at 40%. For the compound `O=C1[C@H]2O[C@]23CCCC[C@H]3[C@@H]1c1ccsc1` (racemic), the AFI was 36%. Turning to `O=C1C=C2CCCC[C@H]2[C@@H]1c1ccsc1` (racemic), the AFI is listed as 1%.

`C[C@@H]1CCC[C@@]2(C)[C@H](c3ccoc3)C(=O)[C@H]3O[C@]132` (racemic): the AFI was determined as 29%.

For the next test, the system named is Spodoptera littoralis. Put plainly: Antifeedant activity against Spodoptera littoralis assessed as antifeedant index at 100 ppm. Format: functional.
For the compound `CC(=O)O[C@@H]1C[C@H]2C(C)(C)C(=O)C=C[C@]2(C)[C@H]2CC[C@]3(C)C(=CC(=O)[C@H]3c3ccoc3)[C@@]21C` [AZADIRADIONE], the AFI came to 1%. As to `CC1(C)CCC[C@@]2(C)[C@H](c3ccoc3)C(=O)[C@H]3O[C@@]312` (stereo in doubt; (+)), the AFI is on record as 55%. On to `CC1(C)CCC[C@]2(C)C1=CC(=O)[C@H]2c1ccoc1` (racemic), for which the AFI is listed as 16%. Turning to `CC1(C)CCC[C@@]2(C)[C@H](c3ccoc3)C(=O)[C@H]3O[C@@]312` (stereo in doubt; (-)), the AFI is reported as 32%. For `CC1(C)CCC[C@@]2(C)[C@H](c3ccoc3)C(=O)[C@H]3O[C@@]312` (racemic), the AFI amounted to 28%. Regarding `CC(=O)O[C@@H]1C[C@H]2C(C)(C)C(=O)C=C[C@]2(C)[C@H]2CC[C@@]3(C)[C@H](c4ccoc4)C(=O)[C@H]4O[C@]43[C@@]21C` [EPOXYAZADIRADIONE], the AFI is 22%.
